Reference: patent US20070105085A1 (Scripps Research, published 2007)
“Also recorded” adds a separate entry of the source.

Experiments:
MsbA [1] = target: MsbA (Escherichia coli, UniProt P60752); details: cited from earlier work
MsbA [2] = target: T1, MsbA (Salmonella typhimurium, UniProt P63359); assay: ATPase activity of detergent solubilized MsbA, linked enzyme assay; format: biochemical
T1 construct: 23-residue pET19b fusion leader with deca-histidine tag (N); made in house; host or cells: E. coli BL21 (DE3)
Description: ATPase Activity. ATPase activity was measured using an ATP-regenerating system described by Vogel and Steinhart, and modified by Urbatsch et al. Briefly, 1 μg of MsbA was added to 100 μl of Linked Enzyme (LE) buffer at 37° C. containing 10 mM ATP, 12 mM MgCl2, 6 mM phosphoenolpyruvate (PEP), 1 mM NADH, 10 units of lactate dehydrogenase (LDH), 10 units of pyruvate kinase (PK), and 50 mM Tris-HCl, pH 7.5. ATP hydrolysis was measured as the decrease in absorbance of NADH at 340 nm using a DXT880 multiplate spectrofluorimeter (Beckman-Coulter). Activity of MsbA in the presence of either E. coli polar lipids (10 μg/ml) or a non-ABC, ATPase inhibitor cocktail (1 mM EGTA, 1 mM NaN3, 0.2 mM ouabain) was measured (FIGS. 28-30). Each data point is the average of 5 independent measurements with standard error bars shown.

Wild type E. coli cells = assay: Doxorubicin retention in wild type E. coli cells; format: cell-based; details: 50 μM PSC
P-gp = details: human and murine MDR cell lines; cited from earlier work
[3] = test system: ΔacrAB E. coli cells overexpressing MsbA; assay: Doxorubicin retention in ΔacrAB E. coli cells overexpressing MsbA; format: cell-based; details: 0-100 μM PSC; change of fluorescence at 400 sec versus 0 sec; P<0.05
Description: Doxorubicin Retention. A pET 15b vector containing the msbA gene from Salmonella typhimurium LT2 was transformed into an E. coli strain deficient in the multiple-drug efflux pump AcrAB (ECΔacrAB). Single colony cultures were grown to optical density (OD600 nm) of 0.6 in the presence of 1 mM IPTG to induce overexpression of MsbA, harvested and washed three times with 100 mM potassium phosphate buffer (pH 7.5) containing 5 mM MgSO4 and concentrated to an OD600 of 20. Cellular accumulation of doxorubicin was accomplished by incubation of cells with 11.5 μM doxorubicin and 40 μM carbonyl cyanide m-chlorophenylhydrazone (CCCP) while shaking for 1 hour at 37° C. The cells were then washed three times and incubated for 15 minutes at 37° C. with 40 μM CCCP and 0, 1, 10, 25, 50 or 100 μM PSC. Efflux was initiated by addition of 25 mM glucose and fluorescence in the cell suspensions was monitored at 16-second time intervals with a DXT880 multiplate spectrofluorimeter (Beckman-Coulter) with excitation at 485 nm and emission at 595 nm for 900 seconds. […] Cellular doxorubicin retention was measured as a change of fluoresence at time=400 sec versus time=0 sec. […] Results are the average of 3 experiments, with 3-8 measurements per experiment. Statistical significance was assigned with the two-way analysis of variance (ANOVA). A P<0.05 is considered significant.

[4] = target: MsbA from Salmonella typhimurium (detergent solubilized, purified) (Salmonella typhimurium) (UniProt P63359); assay: cell-based or functional assay
[5] = target: the molecule itself; assay: X-ray crystal structure of MsbA.ADP.Vi.Ra LPS, 4.2 Å

Sequence of MsbA (Escherichia coli, UniProt P60752) (P60752 whole entry, species assumed): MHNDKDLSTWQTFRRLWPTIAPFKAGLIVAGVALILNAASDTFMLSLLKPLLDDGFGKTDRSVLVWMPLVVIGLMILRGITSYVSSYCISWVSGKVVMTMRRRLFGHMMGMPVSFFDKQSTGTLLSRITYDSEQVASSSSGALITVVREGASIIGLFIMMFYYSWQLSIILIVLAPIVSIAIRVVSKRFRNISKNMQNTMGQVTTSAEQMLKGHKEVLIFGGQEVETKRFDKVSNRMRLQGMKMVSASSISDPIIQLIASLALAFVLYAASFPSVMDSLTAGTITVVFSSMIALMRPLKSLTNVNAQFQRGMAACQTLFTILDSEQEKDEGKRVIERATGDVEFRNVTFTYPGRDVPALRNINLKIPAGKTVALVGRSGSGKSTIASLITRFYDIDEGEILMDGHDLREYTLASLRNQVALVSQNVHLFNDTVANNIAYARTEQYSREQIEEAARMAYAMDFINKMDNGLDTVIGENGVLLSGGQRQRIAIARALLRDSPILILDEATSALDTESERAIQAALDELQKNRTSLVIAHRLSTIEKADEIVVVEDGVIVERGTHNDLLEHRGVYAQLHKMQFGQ

CCCCCCCCCCCCCC(=O)O[C@H](CCCCCCCCCCC)CC(=O)O[C@@H]1[C@@H](NC(=O)C[C@@H](CCCCCCCCCCC)OC(=O)CCCCCCCCCCC)[C@H](OC[C@H]2O[C@H](OP(=O)(O)O)[C@H](NC(=O)C[C@H](O)CCCCCCCCCCC)[C@@H](OC(=O)C[C@H](O)CCCCCCCCCCC)[C@@H]2O)O[C@H](CO[C@]2(C(=O)O)C[C@@H](O[C@]3(C(=O)O)C[C@@H](O)[C@@H](O)[C@@H]([C@H](O)CO)O3)[C@@H](O)[C@@H]([C@H](O)CO)O2)[C@H]1OP(=O)(O)O [Kdo2-lipid A]
stimulatory effect on ATP activity of MsbA (MsbA [1]; compared with Ra LPS): larger stimulatory effect

COc1cccc2c1C(=O)c1c(O)c3c(c(O)c1C2=O)C[C@@](O)(C(=O)CO)C[C@@H]3O[C@H]1C[C@H](N)[C@H](O)[C@H](C)O1 [Doxorubicin, doxorubicin]
effect on ATPase activity (MsbA [2]): stimulates ATPase activity in a dose dependent manner | concentration of maximum stimulation of ATPase activity (MsbA [2]; dose dependent stimulation): 100 µM

C/C=C/C[C@@H](C)C(=O)[C@H]1C(=O)N[C@@H](C(C)C)C(=O)N(C)CC(=O)N(C)[C@@H](CC(C)C)C(=O)N[C@@H](C(C)C)C(=O)N(C)[C@@H](CC(C)C)C(=O)N[C@@H](C)C(=O)N[C@H](C)C(=O)N(C)[C@@H](CC(C)C)C(=O)N(C)[C@@H](CC(C)C)C(=O)N(C)[C@@H](C(C)C)C(=O)N1C [PSC, [3′-Desoxy-3′-oxo-MeBmt]^1-[Val]^2-Ciclosporin]
increase in doxorubicin retention (Wild type E. coli cells): less than 10% | stimulation of ATPase over basal activity (MsbA [2]; PSC at concentrations of 50-250 μM, basal activity 1.25 μmol ATP/min/mg of protein): up to 55% | effect on MsbA ATPase activity (MsbA [2]; concentrations less than 50 μM): modulated | effect on doxorubicin stimulated ATPase activity of MsbA (MsbA [2]; doxorubicin stimulated): modulates doxorubicin stimulated ATPase activity | inhibition of P-gp mediated drug accumulation (P-gp): potent inhibitor | doxorubicin retention [3]: alters the retention of doxorubicin; also recorded: mediates doxorubicin retention

PSC-833, [3'-Desoxy-3'-oxo-MeBmt]1-[Val]2-Ciclosporin (peptide)
ATPase activity of detergent solubilized MsbA (linked enzyme assay) (% over basal activity) [4]: < 55

lipid A
stimulation of MsbA ATPase (MsbA [1]; studies in vitro): specifically stimulated

B1: MsbA from Salmonella typhimurium (detergent solubilized, purified) (other)
chain: MHNDKDLSTWQTFRRLWPTIAPFKAGLIVAGIALILNAASDTFMLSLLKPLLDDGFGKTDRSVLLWMPLVVIGLMILRGITSYISSYCISWVSGKVVMTMRRRLFGHMMGMPVAFFDKQSTGTLLSRITYDSEQVASSSSGALITVVREGASIIGLFIMMFYYSWQLSIILVVLAPIVSIAIRVVSKRFRSISKNMQNTMGQVTTSAEQMLKGHKEVLIFGGQEVETKRFDKVSNKMRLQGMKMVSASSISDPIIQLIASLALAFVLYAASFPSVMDSLTAGTITVVFSSMIALMRPLKSLTNVNAQFQRGMAACQTLFAILDSEQEKDEGKRVIDRATGDLEFRNVTFTYPGREVPALRNINLKIPAGKTVALVGRSGSGKSTIASLITRFYDIDEGHILMDGHDLREYTLASLRNQVALVSQNVHLFNDTVANNIAYARTEEYSREQIEEAARMAYAMDFINKMDNGLDTIIGENGVLLSGGQRQRIAIARALLRDSPILILDEATSALDTESERAIQAALDELQKNRTSLVIAHRLSTIEQADEIVVVEDGIIVERGTHSELLAQHGVYAQLHKMQFGQ
notes: also called ST-MsbA; ABC Transporter MsbA
binding result [5]: binds
